Source: patent US20230357430A1, “RNF167 AND CASTOR1 AS NOVEL MTOR TARGETS” (UNIVERSITY OF PITTSBURGH - OF THE COMMONWEALTH SYSTEM OF …, priority 2020, published 2023)
Entries after “also recorded” stand apart in the source; their conditions may differ. Blank lines part the entries; values can stand above or below the molecule they belong to. Peptide text beside a SMILES is read from it. * marks the point of attachment. Cbz = O=C(OCc1ccccc1)*

Experiments:
[1] = molecular target: T1, recombinant GST-CASTOR1 protein (Novus Biologicals, H00652968-P01) (UniProt Q8WTX7)
T1 sequence: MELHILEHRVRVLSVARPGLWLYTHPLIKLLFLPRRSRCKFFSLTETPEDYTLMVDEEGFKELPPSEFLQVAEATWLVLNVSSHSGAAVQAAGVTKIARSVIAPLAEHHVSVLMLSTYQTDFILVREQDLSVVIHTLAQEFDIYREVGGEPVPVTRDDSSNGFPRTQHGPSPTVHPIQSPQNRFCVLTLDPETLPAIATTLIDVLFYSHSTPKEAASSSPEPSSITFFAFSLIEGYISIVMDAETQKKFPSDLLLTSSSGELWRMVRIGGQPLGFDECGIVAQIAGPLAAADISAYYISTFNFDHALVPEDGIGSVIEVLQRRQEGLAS

[2] = test system: CASTOR1 protein level in 293T cells; assay: CASTOR1 protein level by immunoblotting after chemical treatment; type: cell-based, human; conditions: for Flag-CASTOR1 S14D protein level: 293T cells stably expressing Flag-CASTOR1 S14D; for Flag-CASTOR1 S14D protein level / Flag-CASTOR1 WT and S14A protein level: FIG. 10B-10D; for Flag-CASTOR1 WT and S14A protein level: 293T cells stably expressing Flag-CASTOR1 WT or S14A
Method: (§1) Cell culture and transfection: 293T cells obtained from ATCC (CRL-3216) were maintained in DMEM supplemented with 10% FBS. MCF7, T47D, HCC1569, and HCC202 cells were obtained from Dr. Xiaosong Wang at the University of Pittsburgh, and cultured in RPMI1640 with 10% FBS. MM cells were cultured in DMEM plus 10% FBS, while KMM cells were cultured in DMEM plus 10% FBS and 10 μg/ml hygromycin. HSAEC (FC-0016) and HLBEC (FC-0054) cells were purchased from Lifeline and cultured with the BronchiaLife™ Epithelial Airway Medium Complete Kit (Lifeline LL-0023). All cells were maintained at 37 C° in 5% CO2.
(§2) For amino acid deprivation and re-stimulation to assess mTORC1 activation, cells were incubated in EBSS medium (Thermo 24010043) for 50 min and then stimulated by adding arginine (Sigma A5131) at the indicated concentration. For ubiquitination assays, cells were deprived of FBS or arginine, or treated with 10 μM MK2206 (Selleckem S1078) overnight before immunoprecipitation and immunoblotting, or re-stimulated with FBS or arginine for 12 h before analysis.
For chemical treatments, CHX (CST 2112) or MG132 (Sigma M8699) dissolved in DMSO (VWR 97061-250) was diluted in medium to a specified concentration. Medium containing MG132 or CHX was then used to replace the original medium, and cells were cultured in the presence of MG132 for a specified time.
Immunoblotting analysis: To detect all proteins except CASTOR1, samples were separated with 4%-20% SDS-polyacrylamide gels (Genscript M00656 and M00657). To detect CASTOR1 protein, samples were resolved with 10% SDS-polyacrylamide gels (Genscript M00665 and M00666). Proteins resolved in gels were then transferred to nitrocellulose membranes (GE Healthcare 10600004), which were incubated with primary and secondary antibodies overnight and for 1 h at room temperature, respectively. The signals were developed using the Luminiata Crescendo Western HRP Substrate (EMD Millipore WBLUR0500) and SuperSignal West Femto Maximum Sensitivity Substrate (Thermo 34096) or fluorescence secondary antibodies. The images were recorded with a ChemiDoc MP Imaging System (Bio-Rad 17001402) at either Chemi, Dylight 500, DyLight 800, or StarBright B700 channels.

[3] = molecular target: human CASTOR1 wild type (Flag-CASTOR1 WT) (UniProt Q8WTX7)
mTORC1 = mTORC1 activation status (pS6K, p4EBP1) by immunoblotting; type: cell-based, human; conditions: 293T cells, FIG. 1C
Method: as §1
For amino acid deprivation and re-stimulation to assess mTORC1 activation, cells were incubated in EBSS medium (Thermo 24010043) for 50 min and then stimulated by adding arginine (Sigma A5131) at the indicated concentration. […]
(§3) Immunoblotting analysis: To detect all proteins except CASTOR1, samples were separated with 4%-20% SDS-polyacrylamide gels (Genscript M00656 and M00657). […] The signals were developed using the Luminiata Crescendo Western HRP Substrate (EMD Millipore WBLUR0500) and SuperSignal West Femto Maximum Sensitivity Substrate (Thermo 34096) or fluorescence secondary antibodies. The images were recorded with a ChemiDoc MP Imaging System (Bio-Rad 17001402) at either Chemi, Dylight 500, DyLight 800, or StarBright B700 channels.

CASTOR1 mRNA = CASTOR1 mRNA level by RT-qPCR; type: cell-based, human; conditions: 293T cells, FIG. 6K
Excerpt: Reverse transcription real-time quantitative polymerase-chain reaction (RT-qPCR): Total RNA was extracted by using TRI Reagent (Sigma T9424) based on the manufacturer's instructions. Total RNA was subjected to reverse transcription using the Maxima H Minus First Strand cDNA Synthesis Kit (Thermo K1652). SsoAdvanced™ Universal SYBR® Green Supermix Kit (Bio-Rad 172-5272) was applied for qPCR analysis. The relative mRNA levels were normalized to a house-keeping gene, which yielded 2^−ΔΔCt values. For qPCR reaction, each sample was run in triplicates with cycle threshold (Ct) values within 0.5 Ct differences among the triplicates. The primers used for gene expression were 5′[…]3′ (forward; SEQ ID NO: 22) and 5′[…]3′ (reverse; SEQ ID NO: 23) for human CASTOR1; and […] (forward; SEQ ID NO: 24) and […] (reverse; SEQ ID NO: 25) for human β-actin.

ER+ breast cancer cells = assay: Endogenous CASTOR1 protein level in ER+ breast cancer cells by immunoblotting; type: cell-based, human; conditions: FIG. 13D
Method: as §1
as §3, with “M00657). To detect CASTOR1 protein, samples were resolved with 10% SDS-polyacrylamide gels (Genscript M00665 and M00666).” for “M00657).”

[4] = test system: CASTOR1 phosphorylation at S14; assay: CASTOR1 phosphorylation at the AKT consensus motif (S14), immunoprecipitation and immunoblotting; type: cell-based, human; conditions: Flag-CASTOR1 in cells, FIG. 2C
Method: as §2
Immunoprecipitation. Cells were lysed in lysis buffer (50 mM Tris-HCl, with 150 mM NaCl, 1 mM EDTA, and 1% Triton X-100, pH 7.4) supplemented with a complete protease inhibitor cocktail (Thermo 78438) and phosphatase inhibitor (Thermo 78427), followed by centrifugation at 4° C. for 5 min. […]
as §3

AKT1 = molecular target: T2, AKT1 (Homo sapiens, UniProt P31749); assay: In vitro kinase assay, GST-AKT1 phosphorylation of GST-CASTOR1; type: biochemical; conditions: in the presence of ATP, FIG. 2D
T2 construct: purchased Novus Biologicals 1775-KS (GST-AKT1); H00652968-P01 (GST-CASTOR1)
T2 sequence (P31749 whole entry): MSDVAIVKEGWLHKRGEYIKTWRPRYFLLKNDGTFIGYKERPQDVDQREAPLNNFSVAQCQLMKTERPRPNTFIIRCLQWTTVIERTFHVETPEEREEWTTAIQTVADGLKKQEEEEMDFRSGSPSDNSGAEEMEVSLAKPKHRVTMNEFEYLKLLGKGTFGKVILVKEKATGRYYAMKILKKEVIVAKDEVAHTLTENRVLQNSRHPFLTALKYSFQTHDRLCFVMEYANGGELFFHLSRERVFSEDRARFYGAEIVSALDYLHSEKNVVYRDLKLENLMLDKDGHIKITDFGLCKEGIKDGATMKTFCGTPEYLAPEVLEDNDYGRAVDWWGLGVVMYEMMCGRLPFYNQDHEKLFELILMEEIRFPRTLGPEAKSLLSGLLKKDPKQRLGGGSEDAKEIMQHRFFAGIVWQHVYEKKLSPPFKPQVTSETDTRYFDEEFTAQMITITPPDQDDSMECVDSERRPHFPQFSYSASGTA
Method: In vitro kinase assay: Recombinant GST-AKT1 protein (Novus Biologicals, 1775-KS) was mixed with GST-CASTOR1 protein (Novus Biologicals, H00652968-P01) in a 30 μl reaction mixture at room temperature for 1 h. The reaction mixture contained protease inhibitors, 100 mM HEPES (pH 7.4), 150 mM NaCl, 50 mM MgCl2,1 mM DTT, 0.01% NaN3, 1 mM ATP, 0.2 μg GST-AKT1 and 1 μg GST-CASTOR1.

[5] = molecular target: the molecule itself; assay: dimerization assay, method not described (FIG. 33)

Molecule: recombinant GST-AKT1 protein (Novus Biologicals, 1775-KS)
in vitro kinase assay: phosphorylation of GST-CASTOR1 [1]: efficiently phosphorylated purified GST-tagged CASTOR1 (GST-CASTOR1) recombinant protein only in the presence of ATP, which was abolished by AKT inhibitor MK2206

Molecule: CC(C)C[C@@H](C=O)NC(=O)[C@H](CC(C)C)NC(=O)[C@H](CC(C)C)NC(=O)OCc1ccccc1 [MG132] (Cbz-Leu-Leu-Leu-aldehyde)
accumulation of CASTOR1 protein ([2]; 293T cells co-transfected with Flag-CASTOR1 and myr-HA-AKT1, FIG. 9H): increased the accumulation of CASTOR1 protein
Flag-CASTOR1 S14D protein level [2]: increased S14D protein level
Flag-CASTOR1 WT and S14A protein level [2]: minimal effects on WT and S14A
RNF167-mediated downregulation of CASTOR1 protein ([2]; RNF167 overexpression, FIG. 7H): partially rescues
accumulation of CASTOR1 protein ([2]; cells expressing Flag-CASTOR1 and the vector control, FIG. 9H): only had a marginal effect

Molecule: RING finger protein 167 (RNF167)
CASTOR1 ubiquitination [3]: only RNF167 increased CASTOR1 ubiquitination

Molecule: C[C@@H]1C[C@@H]([C@H](O)CC2CC(=O)NC(=O)C2)C(=O)[C@@H](C)C1 [CHX, cycloheximide]
Flag-CASTOR1 S14D protein level [2]: reduced
Flag-CASTOR1 WT and S14A protein level [2]: minimal effects on WT and S14A

phosphorylation of purified GST-CASTOR1 by purified GST-AKT1 (AKT1): abolished
Molecule: NC1(c2ccc(-c3nc4ccn5c(=O)[nH]nc5c4cc3-c3ccccc3)cc2)CCC1 [MK2206]
mTORC1 activation (mTORC1): decreased mTORC1 activation
CASTOR1 mRNA level (CASTOR1 mRNA): but not mRNA level
CASTOR1 protein level ([2]; 293T cells, FIG. 1C): upregulated CASTOR1 protein
endogenous CASTOR1 protein level (ER+ breast cancer cells): enhanced; also recorded: increases the endogenous CASTOR1 protein level
specific phosphorylation of the AKT motif of CASTOR1 (S14) [4]: significantly reduced the specific phosphorylation of the AKT motif

B1: human CASTOR1 wild type (Flag-CASTOR1 WT) (other, UniProt Q8WTX7 1-329, looked up)
chain: MELHILEHRVRVLSVARPGLWLYTHPLIKLLFLPRRSRCKFFSLTETPEDYTLMVDEEGFKELPPSEFLQVAEATWLVLNVSSHSGAAVQAAGVTKIARSVIAPLAEHHVSVLMLSTYQTDFILVREQDLSVVIHTLAQEFDIYREVGGEPVPVTRDDSSNGFPRTQHGPSPTVHPIQSPQNRFCVLTLDPETLPAIATTLIDVLFYSHSTPKEAASSSPEPSSITFFAFSLIEGYISIVMDAETQKKFPSDLLLTSSSGELWRMVRIGGQPLGFDECGIVAQIAGPLAAADISAYYISTFNFDHALVPEDGIGSVIEVLQRRQEGLAS
notes: Expressed in cells and pulled down from lysates; also called HA-CASTOR1; cytosolic arginine sensor for mTORC1 subunit 1; not shown: N-terminal Flag tag
binding result [5]: binds
